This note sets out measurements from patent publication US9238657B2, “Cephalosporin having catechol group” (SHIONOGI & CO., LTD., priority 2008, dated 2016).

Values after ≈ are worked out from the molar mass of the structure shown.

Common to all, as to experiment: Minimum Inhibitory Concentration (MIC), agar plate incubation
Common to all, as to assay type: cell-based

Test [1] deals with Pseudomonas aeruginosa SR27060. The note with it: Pseudomonas aeruginosa SR27060 (IMP-1, MBL producer strain, carbapenem resistant); 1000 cfu/spot, sensitive disc medium; read-out: Minimum Inhibitory Concentration (MIC). On the procedure:
(§1) Measurement of Minimum Inhibitory Concentration (MIC, microg/ml) was conducted according to the standard method of the Japan Society for Chemotherapy, and the amount of bacteria for inoculation was 1000 cfu/spot, and sensitive disc medium was used as the test medium, and conducted using agar plate incubation.
(§2) In the tables, a unit of the values of inhibitory activity is microg/ml (μg/ml).
(§3) Bacterial strains described in the above tables and enzyme (beta-lactamase) produced thereby are explained in Table 7.

Test [2] concerns Stenotrophomonas maltophilia SR21970. The note with it: Stenotrophomonas maltophilia SR21970 (L-1, MBL producer strain, carbapenem resistant); 1000 cfu/spot, sensitive disc medium; read-out: Minimum Inhibitory Concentration (MIC). On the procedure: as §1, §2, §3
The subject of test [3] is Klebsiella pneumoniae ATCC 700603. The conditions noted are these: ATCC700603; Klebsiella pneumoniae ATCC 700603 (SHV-18, ESBL producer strain); 1000 cfu/spot, sensitive disc medium; read-out: Minimum Inhibitory Concentration (MIC). How it is done: as §1, §2, §3
For test [4], the system named is Pseudomonas aeruginosa SR24. The note with it: Pseudomonas aeruginosa SR24 (no enzyme, Ceftazidime sensitive strain); 1000 cfu/spot, sensitive disc medium; read-out: Minimum Inhibitory Concentration (MIC). How it is done: as §1, §2, §3
Test [5] has as its system Acinetobacter baumannii SR24396. The note with it: Acinetobacter baumannii SR24396 (no enzyme); 1000 cfu/spot, sensitive disc medium; read-out: Minimum Inhibitory Concentration (MIC). How it is done:
as §1, §2, §3

For the compound `Nc1nc(/C(=N/OC2(C(=O)O)CCC2)C(=O)N[C@@H]2C(=O)N3C(C(=O)[O-])=C(C[N+]4(CCNC(=O)c5ccc(O)c(O)c5Cl)CCCC4)CS[C@H]23)cs1` [II-24], the MIC in test [1] amounted to 0.5 µg/mL (≈ 0.654 µM); in test [2], 0.5 µg/mL (≈ 0.654 µM); in test [3] it was 0.125 µg/mL (≈ 0.164 µM); in test [4], 0.063 µg/mL (≈ 0.0824 µM); in test [5], 0.125 µg/mL (≈ 0.164 µM).

For `CC(C)[C@H](O/N=C(\C(=O)N[C@@H]1C(=O)N2C(C(=O)[O-])=C(C[N+]34CCC(CNC(=O)c5ccc(O)c(O)c5Cl)(CC3)CC4)CS[C@H]12)c1csc(N)n1)C(=O)[O-].[Na+]` [II-25], the MIC in test [1] is 0.25 µg/mL; in test [2], 1 µg/mL; in test [3] it was 0.25 µg/mL; in test [4], 0.063 µg/mL; in test [5], 0.25 µg/mL.
